PMC12169662, “De Novo-Designed APC/C Inhibitors Provide a Rationale for Targeting RING-Type E3 Ubiquitin Ligases” (Journal of Medicinal Chemistry, 2025)
Each block holds one compound with its values, some of them ahead of it. Bridge positions count the residues as written; N and C are the ends. Square brackets hold non-standard residues; d marks the D form. Peptide text beside a SMILES is read from it. R8 = C=CCCCCCC[C@@](C)(N)C(=O)O; S5 = C=CCCC[C@](C)(N)C(=O)O; Pra = C#CC[C@H](N)C(=O)O

Assays:
[1] = molecular target: T1, APC/C (Homo sapiens, UniProt Q9NYG5); test: In vitro APC/C ubiquitylation assay with APC/C immunoprecipitated from metaphase HeLa cells; assay type: biochemical; parameters: immunoprecipitated APC/C from metaphase-synchronized HeLa cells; endogenous in cells; host or cells: metaphase-synchronized HeLa cells (APC/C); the E2 is recombinant; conditions: 100 μM, end-point assay, UBE2C as E2, dye-labeled securin, in-gel scanning, n = 5
Description: To assess prevention of RING activation by our E2 mimetics, and thus validate our design strategy, we employed in vitro APC/C ubiquitylation assays containing immunoprecipitated APC/C from metaphase-synchronized HeLa cells, recombinant UBA1 (E1), UBE2C (E2), ubiquitin, and dye-labeled metaphase APC/C substrate securin (Figure A). […] To immobilize BH3 to beads, we used our models to introduce propargylglycine (Pra) (Pra-BH3) at the N-term and thus enable side chain conjugation with azide agarose beads by click chemistry (Figure E). […] Pra-BH3 also precipitated other RING-type E3 including BRCA1, BMI1, MDM2, c-CBL and c-IAP1 (Figure F). However, except for c-CBL and MDM2, those interactions were weaker, as judged by the degree of enrichment over the input of the assay (Figure G).
(§1) APC/C-dependent ubiquitination reactions were performed at 30 °C in 30 mM HEPES pH 7.4, 175 mM NaCl, 8 mM MgCl2, 0.05% Tween-20, 1 mM DTT and 5% glycerol and contained 20 nM recombinant APC/C, 340 nM CDC20, 46 nM GST-UBA1, 340 nM UBE2C (alternatively 400 nM UBE2D, 280 nM UBE2S), 21 μM His6-ubiquitin or if it is indicated 21 μM methylated-ubiquitin (BostonBiochem), 2.6 mM ATP, 10 mM phosphocreatine, and 11 μM creatine kinase. […] Detection of fluorescently labeled substrates was done by a quantitative near-infrared scanning system, Odyssey.

[2] = molecular target: T2, UBE2S (Homo sapiens, UniProt Q16763); test: In vitro E2 activity assay (autoubiquitination); assay type: biochemical; conditions: 100 μM, 45 min, 30 °C, Blue Silver staining, n = 3
T2 construct: gift of Sonja Lorenz (MPI, Göttingen, Germany)
T2 sequence (Q16763 1-222): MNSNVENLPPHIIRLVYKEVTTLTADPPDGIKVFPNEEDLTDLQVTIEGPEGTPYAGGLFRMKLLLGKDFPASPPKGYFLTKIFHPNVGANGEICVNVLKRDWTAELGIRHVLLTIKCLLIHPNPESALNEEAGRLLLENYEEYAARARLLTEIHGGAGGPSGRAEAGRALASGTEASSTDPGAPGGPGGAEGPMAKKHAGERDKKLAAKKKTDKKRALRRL
Procedure: UBE2C and UBE2S activity assays were performed at 30 °C in 50 mM HEPES pH 7.4, 100 mM KCl, 9 mM MgCl2, and contained 0.6 μM UBA1 (E1), 8 μM UBE2C or UBE2S, 60 μM His6-ubiquitin, and 5.6 mM ATP. It should be noted that wild-type UBE2C and UBE2S were used. The reaction was done in a volume of 15 μL, and it was quenched after 45 min with the LDS sample buffer supplemented with 100 mM DTT and subjected to SDS-PAGE followed by Blue Silver staining. Imaging of Blue Silver-stained gels was done by a quantitative near-infrared scanning system, Odyssey. It should be noted that reactions without ATP were first preincubated for 5 min at room temperature.

[3] = molecular target: T1, APC/C; test: In vitro APC/C ubiquitination assay, fully reconstituted with recombinant APC/C, substrate securin; assay type: biochemical; parameters: made in house; host or cells: SF9 insect cells, co-infected with two baculoviruses (bacmids a gift from David Barford); conditions: 25 μM, lowest concentration of titration 25-100 μM, n = 3
Procedure: Next, we tested the APC/C inhibitory proficiency of H1-6 in fully reconstituted activity assays with recombinant APC/C in comparison to BH3 and the commercially available APC/C inhibitor TAME. To account for mechanistic differences in APC/C inhibition between TAME (inhibits CDC20 binding) and ^i APC11 (inhibits E2 binding), all inhibitors, E2s and CDC20 were added simultaneously to APC/C. […] We observed no difference for UBE2C and only a small (∼10%) decrease in UBE2S autoubiquitylation compared to control reactions (Figure S16B–D).
To quantify the inhibitory effectiveness of H6, its IC50 was determined. To this end, we performed in vitro APC/C ubiquitination assays in the presence of H6 titrated from 0.01 to 100 μM (Figure S17B). […]
as §1, with “Odyssey. […]” for “Odyssey.”

[4] = molecular target: T3, RBX1 (Homo sapiens, UniProt P62877); test: Pull-down binding assay from HeLa cell extract, Western blot; conditions: n = 3; for binding to RBX1, Pra-H1 versus Pra-BH3: pull-down with metaphase extracts
T3 construct: endogenous in cells; host or cells: HeLa
T3 sequence (P62877 whole entry): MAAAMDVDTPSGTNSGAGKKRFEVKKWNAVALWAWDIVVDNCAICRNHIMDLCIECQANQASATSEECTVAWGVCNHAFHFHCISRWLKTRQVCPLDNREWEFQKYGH
Procedure: (§2) For protein transfer, a 0.45 μm Immobilon-FL PVDF membrane (Merck Millipore) was used. The membrane was activated in ethanol and then transferred to Blotting buffer (50 mM SDS-MOPS, 50 mM Tris base, 0.1% SDS, 1 mM EDTA, and 20% EtOH). The proteins were transferred using a wet transfer for 1.5 h at 400 mA. Subsequently, the membrane was incubated with the blocking solution, 10% milk in PBS-T (0.02% Tween-20 in PBS), for 1 h at room temperature. To detect proteins of interest, the membrane was incubated with primary antibodies overnight at 4° C, followed by 3 washes for 10 min with PBS-T and incubation with IRDye-labeled secondary antibodies for 1 h. Prior to detection, the membrane was washed twice with PBS-T for 10 min and once with PBS for 10 min. The detection was done using the quantitative near-infrared scanning system Odyssey (LI-COR Biosciences).
(§3) HeLa cell pellet was resuspended in the extraction buffer (30 mM HEPES pH 7.5, 175 mM NaCl, 2.5 mM MgCl2, 0.25% NP40, 10% glycerol, 1 mM DTT supplied with complete protease inhibitor cocktail (Roche), PhosSTOP phosphatase inhibitors (Roche), 1 mM PMSF, 10 μM MG132) and incubated for 20 min on ice, followed by centrifugation to clear the lysate for 15 min at 4 °C 16,100 g. In the meantime, inhibitor molecules containing the propargyl-Gly-OH (Pra) chemical group were covalently attached to the azide agarose resin (Jena Bioscience) by Cu(I)-catalyzed azide–alkyne cycloaddition reaction. Specifically, the inhibitor molecules were mixed with azide agarose resin in a ratio of 0.125 μmol inhibitor/20 μL agarose resin. The reaction was catalyzed by 0.1 mM CuSO4, 0.5 mM THPTA (Sigma-Aldrich), and 5 mM Sodium ascorbate and was performed on the rotating wheel for 30 min at room temperature in a volume of 1 mL. Subsequently, the resin was washed five times with extraction buffer. The inhibitor-agarose resin was added to 2 mg of HeLa cell extract and incubated at 4 °C for 2 h. Afterward, the resin was washed four times with extraction buffer. Pull-down proteins were eluted by incubation with prewarmed 1x LDS sample buffer for 10 min at room temperature, followed by taking supernatant supplemented with 100 mM DTT and boiling for 10 min. Afterward, SDS PAGE and Western blot analyses were performed to detect the indicated proteins.

[5] = molecular target: T4, c-IAP1 (Homo sapiens, UniProt Q13490); test: as above; conditions: peptide clicked to azide agarose beads, n = 3
T4 construct: endogenous in cells; host or cells: HeLa
T4 sequence (Q13490 whole entry): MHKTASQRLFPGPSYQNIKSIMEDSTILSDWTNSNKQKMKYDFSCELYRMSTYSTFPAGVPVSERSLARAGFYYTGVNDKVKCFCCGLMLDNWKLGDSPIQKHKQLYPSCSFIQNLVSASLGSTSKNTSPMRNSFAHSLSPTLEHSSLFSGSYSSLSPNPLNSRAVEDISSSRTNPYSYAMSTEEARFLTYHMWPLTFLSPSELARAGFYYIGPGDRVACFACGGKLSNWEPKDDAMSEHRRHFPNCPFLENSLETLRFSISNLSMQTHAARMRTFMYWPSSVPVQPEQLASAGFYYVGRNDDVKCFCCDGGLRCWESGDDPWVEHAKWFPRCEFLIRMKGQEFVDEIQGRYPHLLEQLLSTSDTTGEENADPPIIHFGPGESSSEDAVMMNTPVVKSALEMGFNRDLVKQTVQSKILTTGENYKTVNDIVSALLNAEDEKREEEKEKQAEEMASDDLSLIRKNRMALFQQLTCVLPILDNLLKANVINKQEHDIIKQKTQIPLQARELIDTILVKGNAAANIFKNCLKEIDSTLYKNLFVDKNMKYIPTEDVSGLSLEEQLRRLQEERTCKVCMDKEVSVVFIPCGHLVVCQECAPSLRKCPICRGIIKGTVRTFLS
Procedure: as §2, §3

[6] = molecular target: T5, MDM2 (Homo sapiens, UniProt Q00987); test: as above; conditions: peptide clicked to azide agarose beads, n = 3
T5 construct: endogenous in cells; host or cells: HeLa
T5 sequence (Q00987 whole entry): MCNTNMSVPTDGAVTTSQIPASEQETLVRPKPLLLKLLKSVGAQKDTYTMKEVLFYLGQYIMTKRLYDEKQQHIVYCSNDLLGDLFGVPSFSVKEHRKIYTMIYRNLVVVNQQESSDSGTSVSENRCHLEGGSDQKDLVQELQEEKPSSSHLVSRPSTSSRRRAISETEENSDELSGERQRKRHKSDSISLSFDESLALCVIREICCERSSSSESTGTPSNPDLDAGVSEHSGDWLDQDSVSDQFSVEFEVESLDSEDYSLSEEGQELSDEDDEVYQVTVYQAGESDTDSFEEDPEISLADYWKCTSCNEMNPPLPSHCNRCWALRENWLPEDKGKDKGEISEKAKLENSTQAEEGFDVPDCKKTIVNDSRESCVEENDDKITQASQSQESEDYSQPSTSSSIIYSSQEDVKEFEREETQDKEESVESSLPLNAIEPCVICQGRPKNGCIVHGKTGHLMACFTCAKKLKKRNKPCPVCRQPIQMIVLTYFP
Procedure: as §2, §3

[7] = molecular target: T6, BMI1 (Homo sapiens, UniProt P35226); test: as above; conditions: peptide clicked to azide agarose beads, n = 3
T6 construct: endogenous in cells; host or cells: HeLa
T6 sequence (P35226 1-326): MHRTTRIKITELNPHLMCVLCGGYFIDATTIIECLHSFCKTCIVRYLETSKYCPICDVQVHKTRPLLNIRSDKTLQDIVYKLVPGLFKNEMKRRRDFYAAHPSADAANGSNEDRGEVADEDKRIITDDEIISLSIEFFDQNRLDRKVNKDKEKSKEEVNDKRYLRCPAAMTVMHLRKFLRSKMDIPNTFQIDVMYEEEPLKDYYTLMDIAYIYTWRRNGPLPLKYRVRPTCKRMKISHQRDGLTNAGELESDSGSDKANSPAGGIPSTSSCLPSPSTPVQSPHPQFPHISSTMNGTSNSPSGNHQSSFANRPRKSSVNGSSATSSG
Procedure: as §2, §3

[8] = molecular target: T7, BRCA1 (Homo sapiens, UniProt P38398); test: as above; conditions: peptide clicked to azide agarose beads, n = 3
T7 construct: endogenous in cells; host or cells: HeLa
T7 sequence (P38398 whole entry): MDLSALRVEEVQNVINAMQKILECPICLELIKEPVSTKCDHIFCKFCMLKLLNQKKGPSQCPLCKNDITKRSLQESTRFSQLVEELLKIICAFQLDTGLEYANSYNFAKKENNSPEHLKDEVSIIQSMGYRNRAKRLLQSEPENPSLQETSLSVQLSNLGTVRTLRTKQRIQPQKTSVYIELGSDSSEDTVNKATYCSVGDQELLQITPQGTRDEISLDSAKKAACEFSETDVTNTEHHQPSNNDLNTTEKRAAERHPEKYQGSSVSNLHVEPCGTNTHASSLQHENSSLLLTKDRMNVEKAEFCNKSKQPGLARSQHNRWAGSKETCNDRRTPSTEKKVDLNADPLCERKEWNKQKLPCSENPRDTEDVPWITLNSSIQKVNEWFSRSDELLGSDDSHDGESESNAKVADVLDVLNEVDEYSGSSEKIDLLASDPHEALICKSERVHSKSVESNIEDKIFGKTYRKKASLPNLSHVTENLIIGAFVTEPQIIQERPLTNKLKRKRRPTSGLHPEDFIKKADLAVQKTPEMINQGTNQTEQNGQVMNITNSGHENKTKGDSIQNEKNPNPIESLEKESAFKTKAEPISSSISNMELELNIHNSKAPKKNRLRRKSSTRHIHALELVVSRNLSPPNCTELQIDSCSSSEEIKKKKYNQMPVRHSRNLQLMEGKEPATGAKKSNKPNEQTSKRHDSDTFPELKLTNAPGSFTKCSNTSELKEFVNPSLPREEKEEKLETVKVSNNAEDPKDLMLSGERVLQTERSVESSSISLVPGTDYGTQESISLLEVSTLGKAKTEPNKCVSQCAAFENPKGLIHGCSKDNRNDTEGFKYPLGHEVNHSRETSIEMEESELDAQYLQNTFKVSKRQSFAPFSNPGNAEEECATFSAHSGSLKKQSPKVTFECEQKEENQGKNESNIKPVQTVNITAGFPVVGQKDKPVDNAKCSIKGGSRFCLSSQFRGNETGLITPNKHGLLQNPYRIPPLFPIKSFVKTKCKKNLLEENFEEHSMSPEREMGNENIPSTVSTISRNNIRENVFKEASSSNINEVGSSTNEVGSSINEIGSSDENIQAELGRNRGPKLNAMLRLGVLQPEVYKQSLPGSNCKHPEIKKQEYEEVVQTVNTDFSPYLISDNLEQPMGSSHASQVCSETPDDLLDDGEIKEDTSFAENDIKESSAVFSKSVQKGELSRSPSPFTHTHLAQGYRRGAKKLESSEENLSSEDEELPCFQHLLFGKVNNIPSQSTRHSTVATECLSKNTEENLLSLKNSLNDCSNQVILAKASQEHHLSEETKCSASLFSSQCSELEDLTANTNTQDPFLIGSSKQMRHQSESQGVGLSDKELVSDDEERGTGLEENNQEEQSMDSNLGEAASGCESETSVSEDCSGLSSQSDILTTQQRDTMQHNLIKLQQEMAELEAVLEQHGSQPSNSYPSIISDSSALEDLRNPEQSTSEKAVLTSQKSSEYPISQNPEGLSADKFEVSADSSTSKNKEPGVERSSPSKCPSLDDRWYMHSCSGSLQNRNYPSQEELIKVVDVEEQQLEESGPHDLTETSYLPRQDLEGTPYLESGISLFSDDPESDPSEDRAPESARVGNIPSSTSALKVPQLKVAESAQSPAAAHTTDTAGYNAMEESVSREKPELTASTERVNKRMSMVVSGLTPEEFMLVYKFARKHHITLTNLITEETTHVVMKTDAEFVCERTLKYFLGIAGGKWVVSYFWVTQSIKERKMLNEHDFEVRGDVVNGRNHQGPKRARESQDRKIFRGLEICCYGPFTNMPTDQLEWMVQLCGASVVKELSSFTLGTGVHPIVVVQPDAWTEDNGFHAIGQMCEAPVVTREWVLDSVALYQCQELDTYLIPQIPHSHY
Procedure: as §2, §3

[9] = molecular target: T8, APC11 (Homo sapiens, UniProt Q9NYG5); test: as above; conditions: peptide clicked to azide agarose beads, 2 mg HeLa extract, 4 °C, 2 h, n = 3
T8 construct: endogenous in cells; host or cells: HeLa
T8 sequence (Q9NYG5 whole entry): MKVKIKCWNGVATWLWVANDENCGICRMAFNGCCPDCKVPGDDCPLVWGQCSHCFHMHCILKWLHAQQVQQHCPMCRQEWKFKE
Procedure: as §2, §3

[10] = molecular target: T9, c-CBL (Homo sapiens, UniProt P22681); test: as above; conditions: peptide clicked to azide agarose beads, n = 3
T9 construct: endogenous in cells; host or cells: HeLa
Procedure: as §2, §3

securin ubiquitylation compared to control reactions [1]: no such effect
Compound: C[C@@H](O)[C@H](NC(=O)[C@H](CCCNC(=N)N)NC(=O)[C@@H]1CSSC[C@H](NC(=O)[C@H](CCCNC(=N)N)NC(=O)CN)C(=O)N[C@@H](Cc2c[nH]cn2)C(=O)N[C@@H](Cc2c[nH]c3ccccc23)C(=O)NCC(=O)N2CCC[C@H]2C(=O)N[C@@H](CCC(=O)O)C(=O)N[C@@H]([C@@H](C)O)C(=O)N[C@@H](Cc2ccccc2)C(=O)N[C@@H](Cc2c[nH]c3ccccc23)C(=O)N1)C(=O)O [BH4] (H-GRCHWGPETFWCRT-OH; disulfide 3-12)

decrease in UBE2S autoubiquitylation compared to control reactions [2]: ~10%
reduction of APC/C activity toward securin [3]: more than 80%
Compound: CC[C@H](C)[C@@H]1NC(=O)[C@H](CCC(=O)O)NC(=O)[C@H](CCCCN)NC(=O)[C@H]([C@@H](C)CC)NC(=O)[C@](C)(NC(=O)[C@H](Cc2c[nH]c3ccccc23)NC(=O)[C@H](Cc2c[nH]c3ccccc23)NC(=O)[C@H](CCC(=O)O)NC(C)=O)CCCCCCC=CCCC[C@@](C)(C(=O)N[C@@H](CCCNC(=N)N)C(=O)N[C@@H](CCCNC(=N)N)C(=O)N[C@@H](C)C(N)=O)NC(=O)[C@H](CCCNC(=N)N)NC(=O)[C@H](CCC(N)=O)NC1=O [H6] (Ac-EWW[R8]IKEIQR[S5]RRA-NH2; staple 4-11)

binding to RBX1, Pra-H1 versus Pra-BH3 [4]: very weak and unchanged
Compound: C#CC[C@H](NC(=O)[C@@H]1CCCN1C(=O)[C@H](Cc1c[nH]c2ccccc12)NC(=O)[C@H](CCCNC(=N)N)NC(C)=O)C(=O)N[C@@]1(C)CCCC=CCCC[C@@](C)(C(=O)N[C@@H](CCC(N)=O)C(=O)N[C@H](C(=O)N[C@@H](CCCNC(=N)N)C(=O)N[C@@H](CCCNC(=N)N)C(=O)N[C@@H](Cc2c[nH]c3ccccc23)C(N)=O)C(C)C)NC(=O)[C@H](CC(=O)O)NC(=O)[C@H](Cc2c[nH]c3ccccc23)NC(=O)[C@H](CCCCN)NC1=O [Pra-H1] (Ac-RWP[Pra][S5]KWD[S5]QVRRW-NH2; staple 5-9)

precipitation of c-IAP1 on beads, enrichment over input [5]: weaker
precipitation of MDM2 on beads [6]: precipitated
precipitation of BMI1 on beads, enrichment over input [7]: weaker
enrichment of RBX1 on beads ([4]; peptide clicked to azide agarose beads, 2 mg HeLa extract, 4 °C, 2 h): not
binding to RBX1, Pra-H1 versus Pra-BH3 [4]: very weak and unchanged
precipitation of BRCA1 on beads, enrichment over input [8]: weaker
enrichment of APC11 on beads [9]: strong enrichment
precipitation of c-CBL on beads [10]: precipitated
Compound: Ac-[Pra]RCHWGPRTFWCR-NH2 (disulfide 3-12 (inferred); SMILES C#CC[C@H](NC(C)=O)C(=O)N[C@@H](CCCNC(=N)N)C(=O)N[C@H]1CSSC[C@@H](C(=O)N[C@@H](CCCNC(=N)N)C(N)=O)NC(=O)[C@H](Cc2c[nH]c3ccccc23)NC(=O)[C@H](Cc2ccccc2)NC(=O)[C@H]([C@@H](C)O)NC(=O)[C@H](CCCNC(=N)N)NC(=O)[C@@H]2CCCN2C(=O)CNC(=O)[C@H](Cc2c[nH]c3ccccc23)NC(=O)[C@H](Cc2c[nH]cn2)NC1=O) [Pra-BH3, BH3 with propargylglycine at the N-term for click chemistry]
